Source: patent publication US20240294550A1, “8-OXA-3-AZABICYCLO[3.2.1]OCTANE COMPOUNDS OR SALT THEREOF, AND PREPARATION METHOD AND USE THEREOF” (LITTDD MEDICINES LTD, priority 2021, published 2024)

Target: ATR (Homo sapiens (Human), UniProt Q13535)
Test: ATR kinase inhibition assay (HTRF)
Assay type: biochemical
Conditions: p53 substrate, ATP 150 nM

Chain of ATR (Q13535 whole entry): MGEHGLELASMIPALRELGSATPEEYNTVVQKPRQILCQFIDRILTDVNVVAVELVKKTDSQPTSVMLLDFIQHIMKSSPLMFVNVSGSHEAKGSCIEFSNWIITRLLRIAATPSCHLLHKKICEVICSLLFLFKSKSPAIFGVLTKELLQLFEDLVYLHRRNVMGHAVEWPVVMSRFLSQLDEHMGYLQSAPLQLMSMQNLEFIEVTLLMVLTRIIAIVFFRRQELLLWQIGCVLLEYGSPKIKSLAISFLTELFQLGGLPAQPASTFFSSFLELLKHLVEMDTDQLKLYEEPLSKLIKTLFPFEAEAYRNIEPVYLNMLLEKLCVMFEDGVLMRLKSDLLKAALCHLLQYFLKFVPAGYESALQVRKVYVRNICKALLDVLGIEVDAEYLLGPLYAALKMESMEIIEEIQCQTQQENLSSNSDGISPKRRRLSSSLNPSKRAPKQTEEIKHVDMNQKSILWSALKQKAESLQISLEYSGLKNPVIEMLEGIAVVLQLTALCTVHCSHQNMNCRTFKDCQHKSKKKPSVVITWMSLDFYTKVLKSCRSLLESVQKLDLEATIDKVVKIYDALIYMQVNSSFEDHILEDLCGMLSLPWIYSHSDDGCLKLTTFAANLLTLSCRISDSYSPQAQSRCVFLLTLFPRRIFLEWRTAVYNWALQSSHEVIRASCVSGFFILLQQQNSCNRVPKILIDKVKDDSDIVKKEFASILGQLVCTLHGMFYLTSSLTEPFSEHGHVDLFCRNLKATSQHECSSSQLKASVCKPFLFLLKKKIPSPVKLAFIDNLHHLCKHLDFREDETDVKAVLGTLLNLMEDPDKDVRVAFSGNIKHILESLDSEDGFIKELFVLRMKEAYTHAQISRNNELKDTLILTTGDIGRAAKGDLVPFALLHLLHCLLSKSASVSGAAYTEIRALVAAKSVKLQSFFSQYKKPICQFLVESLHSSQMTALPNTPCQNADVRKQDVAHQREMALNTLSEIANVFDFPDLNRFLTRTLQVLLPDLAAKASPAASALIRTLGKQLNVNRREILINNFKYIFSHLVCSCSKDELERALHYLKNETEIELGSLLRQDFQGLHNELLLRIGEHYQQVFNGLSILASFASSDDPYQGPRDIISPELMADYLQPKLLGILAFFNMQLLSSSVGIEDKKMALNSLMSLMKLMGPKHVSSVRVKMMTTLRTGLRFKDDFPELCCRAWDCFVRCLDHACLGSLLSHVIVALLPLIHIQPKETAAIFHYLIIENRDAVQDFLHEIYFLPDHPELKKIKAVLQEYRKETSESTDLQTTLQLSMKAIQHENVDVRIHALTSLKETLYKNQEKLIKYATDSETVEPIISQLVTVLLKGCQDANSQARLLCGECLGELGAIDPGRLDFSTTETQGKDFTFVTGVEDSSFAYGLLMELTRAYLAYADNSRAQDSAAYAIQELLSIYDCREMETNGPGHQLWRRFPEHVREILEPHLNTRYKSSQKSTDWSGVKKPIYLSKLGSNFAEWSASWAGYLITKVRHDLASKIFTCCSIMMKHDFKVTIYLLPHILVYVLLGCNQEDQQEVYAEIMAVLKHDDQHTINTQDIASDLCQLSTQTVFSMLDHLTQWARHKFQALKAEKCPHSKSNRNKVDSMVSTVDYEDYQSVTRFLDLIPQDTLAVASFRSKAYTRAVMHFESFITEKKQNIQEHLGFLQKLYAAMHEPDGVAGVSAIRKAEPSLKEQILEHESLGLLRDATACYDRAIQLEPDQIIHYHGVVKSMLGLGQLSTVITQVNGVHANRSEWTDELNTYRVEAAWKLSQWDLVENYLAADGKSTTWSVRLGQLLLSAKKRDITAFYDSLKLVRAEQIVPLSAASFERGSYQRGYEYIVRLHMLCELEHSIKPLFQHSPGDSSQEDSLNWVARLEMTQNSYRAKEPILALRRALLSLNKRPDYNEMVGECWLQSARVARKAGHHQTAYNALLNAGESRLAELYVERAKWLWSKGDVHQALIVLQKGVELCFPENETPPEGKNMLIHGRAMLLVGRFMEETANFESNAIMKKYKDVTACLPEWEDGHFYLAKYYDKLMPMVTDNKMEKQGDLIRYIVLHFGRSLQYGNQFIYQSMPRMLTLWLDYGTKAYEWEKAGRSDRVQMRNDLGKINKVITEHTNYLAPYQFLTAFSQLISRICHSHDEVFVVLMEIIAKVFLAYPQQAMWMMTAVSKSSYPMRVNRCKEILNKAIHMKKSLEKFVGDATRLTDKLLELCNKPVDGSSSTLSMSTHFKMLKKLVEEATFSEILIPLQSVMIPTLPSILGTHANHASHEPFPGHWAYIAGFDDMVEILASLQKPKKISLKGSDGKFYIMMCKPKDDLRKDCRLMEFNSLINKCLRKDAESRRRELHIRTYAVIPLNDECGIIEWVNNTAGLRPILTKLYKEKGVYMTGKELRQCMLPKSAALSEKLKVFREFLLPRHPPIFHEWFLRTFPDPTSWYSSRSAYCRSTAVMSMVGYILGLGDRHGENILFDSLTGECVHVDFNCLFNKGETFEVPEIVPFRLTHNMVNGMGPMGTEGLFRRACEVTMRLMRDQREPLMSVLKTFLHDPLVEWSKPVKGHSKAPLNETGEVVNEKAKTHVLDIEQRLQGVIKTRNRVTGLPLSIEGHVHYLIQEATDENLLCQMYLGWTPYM
Chain of ATR (Q8WXE1 whole entry partner): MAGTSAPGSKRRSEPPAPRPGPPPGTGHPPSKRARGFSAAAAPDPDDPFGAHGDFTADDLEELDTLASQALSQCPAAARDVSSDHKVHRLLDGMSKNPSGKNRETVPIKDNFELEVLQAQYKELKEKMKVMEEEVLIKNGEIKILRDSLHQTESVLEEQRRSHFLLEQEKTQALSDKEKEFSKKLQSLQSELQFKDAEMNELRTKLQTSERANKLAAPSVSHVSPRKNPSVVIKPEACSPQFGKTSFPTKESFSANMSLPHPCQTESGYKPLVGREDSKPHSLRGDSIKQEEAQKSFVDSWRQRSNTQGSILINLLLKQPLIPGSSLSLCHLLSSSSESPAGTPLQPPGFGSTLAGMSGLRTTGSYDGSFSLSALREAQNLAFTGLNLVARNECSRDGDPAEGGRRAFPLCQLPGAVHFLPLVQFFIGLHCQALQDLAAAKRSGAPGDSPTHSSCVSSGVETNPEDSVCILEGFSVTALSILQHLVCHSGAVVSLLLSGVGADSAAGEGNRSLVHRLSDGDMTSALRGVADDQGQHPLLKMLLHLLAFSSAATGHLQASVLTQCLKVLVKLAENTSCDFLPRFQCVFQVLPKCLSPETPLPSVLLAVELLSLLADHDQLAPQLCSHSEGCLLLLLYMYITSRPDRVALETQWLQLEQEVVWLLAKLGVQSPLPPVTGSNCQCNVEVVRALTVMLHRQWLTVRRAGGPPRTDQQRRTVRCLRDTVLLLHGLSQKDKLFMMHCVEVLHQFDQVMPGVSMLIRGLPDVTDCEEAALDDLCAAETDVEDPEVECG

Structure (SMILES): C[C@@H]1COCCN1c1cc(N2CC3CCC(C2)O3)nc2c(-c3cc[nH]n3)cnn12 [Example 1, 3-(7-((R)-3-methylmorpholino)-3-(1H-pyrazol-3-yl)pyrazolo[1,5-a]pyrimidin-5-yl)-8-oxa-3-azabicyclo[3.2.1]octane]
- IC50: 17.4 nM
